The values below come from US8889682B2, “Inhibitors of bruton'S tyrosine kinase” (Hoffmann-La Roche Inc., priority 2011, dated 2014).

What is called IC50 is the midpoint of a concentration-inhibition curve.

The assay concerns B cell receptor-mediated activation of B cells in human blood (CD69 expression). The assay is described as follows: Inhibition of B cell activation in whole blood measured by CD69 expression. The class given is cell-based. The settings on record: anti-IgM stimulation, 20 hours, CD69-positive cells that are also CD20-positive, read-out: HWB IC50. How it is done:
Inhibition of B Cell Activation in Whole Blood Measured by CD69 Expression
A procedure to test the ability of Btk inhibitors to suppress B cell receptor-mediated activation of B cells in human blood is as follows:
Human whole blood (HWB) is obtained from healthy volunteers, with the following restrictions: 24 hr drug-free, non-smokers. Blood is collected by venipuncture into Vacutainer tubes anticoagulated with sodium heparin. Test compounds are diluted to ten times the desired starting drug concentration in PBS […], followed by three-fold serial dilutions in 10% DMSO in PBS to produce a nine point dose-response curve. […] HWB (100 μl) is added to each well, and after mixing the plates are incubated at 37 C, 5% CO2, 100% humidity for 30 minutes.
Included are induced control, unstained and single stains for compensation adjustments and initial voltage settings. […] Supernatants are removed via suction and the remaining pellets are lysed again with another 1 ml of 1× Pharmingen Lyse Buffer, and plates are spun down as before. Supernatants are aspirated and remaining pellets are washed in FACs buffer (PBS+1% FBS). […] Samples are transferred to a 96 well plate suitable to be run on the HTS 96 well system on the BD LSR II flow cytometer.
Using appropriate excitation and emission wavelengths for the fluorophores used, data are acquired and percent positive cell values are obtained using Cell Quest Software. Results are initially analyzed by FACS analysis software (Flow Jo).
On to `CN1CCC(c2ccc(Nc3cc(-c4ccnc(-n5ncc6cc(C(C)(C)C)cc(F)c6c5=O)c4CO)nn(C)c3=O)nc2)CC1` [Compound I-1, 6-tert-Butyl-8-fluoro-2-{3-hydroxymethyl-4-[1-methyl-5-(1′-methyl-1′,2′,3′,4′,5′,6′-hexahydro-[3,4′]bipyridinyl-6-ylamino)-6-oxo-1,6-dihydro-pyridazin-3-yl]-pyridin-2-yl}-2H-phthalazin-1-one], for which the IC50 came to 11 nM.
On to `CN1CCC[C@H]1c1ccc(Nc2cc(-c3ccnc(-n4ncc5cc(C(C)(C)C)cc(F)c5c4=O)c3CO)nn(C)c2=O)nc1` [Compound I-2, 6-tert-Butyl-8-fluoro-2-(3-hydroxymethyl-4-{1-methyl-5-[5-((S)-1-methyl-pyrrolidin-2-yl)-pyridin-2-ylamino]-6-oxo-1,6-dihydro-pyridazin-3-yl}-pyridin-2-yl)-2H-phthalazin-1-one], for which the IC50 worked out at 5 nM.
Consider `Cn1nc(-c2ccnc(-n3ncc4cc(C(C)(C)C)cc(F)c4c3=O)c2CO)cc(Nc2ccc(C(=O)N3CCOCC3)cn2)c1=O` [Compound I-3, 6-tert-Butyl-8-fluoro-2-(3-hydroxymethyl-4-{1-methyl-5-[5-(morpholine-4-carbonyl)-pyridin-2-ylamino]-6-oxo-1,6-dihydro-pyridazin-3-yl}-pyridin-2-yl)-2H-phthalazin-1-one], for which the IC50 was determined as 14 nM.
The figure for `Cn1nc(-c2ccnc(-n3ncc4cc(C(C)(C)C)cc(F)c4c3=O)c2CO)cc(Nc2ccc(S(C)(=O)=O)cn2)c1=O` [Compound I-4, 6-tert-Butyl-8-fluoro-2-{3-hydroxymethyl-4-[5-(5-methanesulfonyl-pyridin-2-ylamino)-1-methyl-6-oxo-1,6-dihydro-pyridazin-3-yl]-pyridin-2-yl}-2H-phthalazin-1-one] is 95 nM; for `CN(C)C(=O)c1ccc(Nc2cc(-c3ccnc(-n4ncc5cc(C(C)(C)C)cc(F)c5c4=O)c3CO)nn(C)c2=O)nc1` [Compound I-5, 6-{6-[2-(6-tert-Butyl-8-fluoro-1-oxo-1H-phthalazin-2-yl)-3-hydroxymethyl-pyridin-4-yl]-2-methyl-3-oxo-2,3-dihydro-pyridazin-4-ylamino}-N,N-dimethyl-nicotinamide] it is 30 nM; for `CN(C)C(=O)c1ccc(Nc2cc(-c3ccnc(-n4ccc5cc(C6CC6)cc(F)c5c4=O)c3CO)nn(C)c2=O)nc1` [Compound I-6, 6-{6-[2-(6-Cyclopropyl-8-fluoro-1-oxo-1H-isoquinolin-2-yl)-3-hydroxymethyl-pyridin-4-yl]-2-methyl-3-oxo-2,3-dihydro-pyridazin-4-ylamino}-N,N-dimethyl-nicotinamide] it is 77 nM.
The figure for `Cn1nc(-c2ccnc(-n3ncc4cc(C(C)(C)C)ccc4c3=O)c2CO)cc(Nc2ccc(C(=O)N3CCOCC3)cn2)c1=O` [Compound I-7, 6-tert-Butyl-2-(3-hydroxymethyl-4-{1-methyl-5-[5-(morpholine-4-carbonyl)-pyridin-2-ylamino]-6-oxo-1,6-dihydro-pyridazin-3-yl}-pyridin-2-yl)-2H-phthalazin-1-one] is 101 nM.
Regarding `Cn1cc(-c2ccnc(-n3ncc4cc(C(C)(C)C)cc(F)c4c3=O)c2CO)cc(Nc2ccc(C(=O)N3CCOCC3)cn2)c1=O` [Compound I-8, 2′-(6-tert-Butyl-8-fluoro-1-oxo-1H-phthalazin-2-yl)-3′-hydroxymethyl-1-methyl-5-[5-(morpholine-4-carbonyl)-pyridin-2-ylamino]-1H-[3,4′]bipyridinyl-6-one], the IC50 was determined as 27 nM.
Regarding `CN(C)C(=O)c1ccc(Nc2cc(-c3ccnc(-n4ncc5cc(C(C)(C)C)cc(F)c5c4=O)c3CO)cn(C)c2=O)nc1` [Compound I-10, 6-[2′-(6-tert-Butyl-8-fluoro-1-oxo-1H-phthalazin-2-yl)-3′-hydroxymethyl-1-methyl-6-oxo-1,6-dihydro-[3,4′]bipyridinyl-5-ylamino]-N,N-dimethyl-nicotinamide], the IC50 amounted to 9 nM.
For the molecule `Cn1cc(-c2ccnc(-n3ccc4cc(C5CC5)cc(F)c4c3=O)c2CO)cc(Nc2ccc(C(=O)N3CCOCC3)cn2)c1=O` [Compound I-11, 2′-(6-Cyclopropyl-8-fluoro-1-oxo-1H-isoquinolin-2-yl)-3′-hydroxymethyl-1-methyl-5-[5-(morpholine-4-carbonyl)-pyridin-2-ylamino]-1H-[3,4′]bipyridinyl-6-one], the IC50 was found to be 15 nM.
As for `CN1CCC[C@H]1c1ccc(Nc2cc(-c3ccnc(-n4ncc5cc(C(C)(C)C)ccc5c4=O)c3CO)nn(C)c2=O)nc1` [Compound I-12, 6-tert-Butyl-2-(3-hydroxymethyl-4-{1-methyl-5-[5-((S)-1-methyl-pyrrolidin-2-yl)-pyridin-2-ylamino]-6-oxo-1,6-dihydro-pyridazin-3-yl}-pyridin-2-yl)-2H-phthalazin-1-one], the figure is 28 nM.
In the case of `CN1CCC(c2ccc(Nc3cc(-c4ccnc(-n5ncc6cc(C(C)(C)C)ccc6c5=O)c4CO)nn(C)c3=O)nc2)CC1` [Compound I-13, 6-tert-Butyl-2-{3-hydroxymethyl-4-[1-methyl-5-(1′-methyl-1′,2′,3′,4′,5′,6′-hexahydro-[3,4′]bipyridinyl-6-ylamino)-6-oxo-1,6-dihydro-pyridazin-3-yl]-pyridin-2-yl}-2H-phthalazin-1-one], the IC50 turned out to be 47 nM.
Take `CCN1CCC(c2ccc(Nc3cc(-c4ccnc(-n5ncc6cc(C(C)(C)C)cc(F)c6c5=O)c4CO)nn(C)c3=O)nc2)CC1` [Compound I-14, 6-tert-Butyl-2-{4-[5-(1′-ethyl-1′,2′,3′,4′,5′,6′-hexahydro-[3,4′]bipyridinyl-6-ylamino)-1-methyl-6-oxo-1,6-dihydro-pyridazin-3-yl]-3-hydroxymethyl-pyridin-2-yl}-8-fluoro-2H-phthalazin-1-one]: the IC50 is 6 nM.
The figure for `Cn1nc(-c2ccnc(-n3ncc4cc(C(C)(C)C)cc(F)c4c3=O)c2CO)cc(Nc2ccc(OC(C)(C)CN3CCC3)cn2)c1=O` [Compound I-15, 2-(4-{5-[5-(2-Azetidin-1-yl-1,1-dimethyl-ethoxy)-pyridin-2-ylamino]-1-methyl-6-oxo-1,6-dihydro-pyridazin-3-yl}-3-hydroxymethyl-pyridin-2-yl)-6-tert-butyl-8-fluoro-2H-phthalazin-1-one] is 3 nM; for `Cn1nc(-c2ccnc(-n3ncc4cc(C(C)(C)C)ccc4c3=O)c2CO)cc(Nc2ccc(OC(C)(C)CN3CCC3)cn2)c1=O` [Compound I-16, 2-(4-{5-[5-(2-Azetidin-1-yl-1,1-dimethyl-ethoxy)-pyridin-2-ylamino]-1-methyl-6-oxo-1,6-dihydro-pyridazin-3-yl}-3-hydroxymethyl-pyridin-2-yl)-6-tert-butyl-2H-phthalazin-1-one] it is 28 nM; for `Cn1nc(Nc2cc(-c3ccnc(-n4ncc5cc(C(C)(C)C)cc(F)c5c4=O)c3CO)nn(C)c2=O)cc1CN1CCC1` [Compound I-17, 2-{4-[5-(5-Azetidin-1-ylmethyl-1-methyl-1H-pyrazol-3-ylamino)-1-methyl-6-oxo-1,6-dihydro-pyridazin-3-yl]-3-hydroxymethyl-pyridin-2-yl}-6-tert-butyl-8-fluoro-2H-phthalazin-1-one] it is 30 nM.
